This note sets out measurements from patent US12286437B2, “Cardiac sarcomere inhibitors” (Cytokinetics, Inc., priority 2021, dated 2025).

The structures appear in SMILES notation.

Data set [1] has as its system bovine cardiac myofibrils. Put plainly: Myofibril assay (ATPase activity of skinned bovine cardiac myofibrils, PK/LDH-coupled). Type of data set: biochemical. Particulars: inhibition of steady-state ATPase of bovine cardiac myofibrils; CaCl2 for 50% or 75% activation. As for the experimental part: To evaluate the effect of compounds on the ATPase activity of full-length cardiac myosin in the context of the native sarcomere, skinned myofibril assays were performed. Bovine cardiac myofibrils were obtained by homogenizing bovine cardiac left ventricular tissue in the presence of a detergent such as triton X-100. Such treatment removes membranes and a majority of the soluble cytoplasmic proteins but leaves intact the cardiac sarcomeric acto-myosin apparatus. Myofibril preparations retain the ability to hydrolyze ATP in a Ca^2+ regulated manner. ATPase activities of such myofibril preparations in the presence and absence of compounds were assayed at Ca^2+ concentrations activating to a defined fraction of the maximal rate (i.e., […], 75%). Small molecule agents were assessed for their ability to inhibit the steady-state ATPase activity of bovine cardiac myofibrils using pyruvate kinase and lactate dehydrogenase (PK/LDH)-coupled enzyme system. This assay regenerates myosin-produced ADP into ATP by oxidizing NADH, producing an absorbance change at 340 nm. Prior to testing small molecule agents, the bovine cardiac myofibrils were assessed for their calcium responsiveness and the calcium concentration that achieves either a 50% (pCa50) or 75% (pCa75) activation of the myofibril system was chosen as the final condition for assessing the inhibitory activity of the small molecule agents. All enzymatic activity was measured in a buffered solution containing 12 mM PIPES (piperazine-N,N′-bis(2-ethanesulfonic acid), 2 mM magnesium chloride at pH 6.8 (PM 12 buffer). Final assay conditions were 1 mg/mL of bovine cardiac myofibrils, 4 U/mL pyruvate kinase, 6 U/mL lactate dehydrogenase, 50 μM ATP, 0.1 mg/mL BSA (bovine serum albumin), 10 ppm antifoam, 1 mM DTT, 0.5 mM NADH, 1.5 mM PEP, 0.6 mM EGTA, and an amount of CaCl2 sufficient to achieve either 50% or 75% activation of the myofibril ATPase activity. Results for compounds tested are provided in Table A. Compounds tested were prepared in accordance with the synthetic procedures described herein.

Data set [2] in a line: Rat single dose pharmacokinetics. Type of data set: in vivo, Sprague Dawley rats. The conditions noted are these: male, Sprague Dawley, plasma, IV; for Vd: read-out: Vss. The procedure: Male Sprague Dawley rats were obtained from Zhejiang Vital River Laboratory Animal Technology Co., Ltd. The animals in IV group had free access to water and food. The animals in PO group were fasted overnight before dosing and provided with food 2 hours post dosing. The IV dose solution was prepared in 10% DMA/50% PG/40% HPβCD solution (40% w/v aqueous HPβCD) at a concentration of 1 mg/mL. The oral dosing suspension was prepared by suspending Test Article in 0.5% HPMC/0.1% Tween 80 in water at a concentration 0.2 mg/mL. Concentrations of IV and PO doses were measured at the end of the study. Pharmacokinetic parameters were calculated using the nominal dose values if the measured values were within 20% of the nominal values. Three rats were dosed IV via a bolus injection via caudal vein. Three rats per dose group were dosed by oral gavage. Blood samples were collected from the jugular vein cannula at predose, 5 (IV only), 15, 30 minutes, and 1, 2, 4, 6, and 24 hours post-dose. Blood volumes were replaced with an equal amount of sterile 0.9% saline. Blood samples were centrifuged and the collected plasma was stored at −80° C. for subsequent analysis. Plasma samples were analyzed for Test Article concentrations using a LC/MS/MS method. Briefly, a 50 μL aliquot of each plasma sample was mixed with 100 μL of acetonitrile that contained an internal standard. The mixture was vortexed and centrifuged. Ten (10) […] of the resulting solution was injected onto a reverse-phase C18 column and the resultant peaks detected on a LC/MS/MS equipped with a turbo ionspray ionization source. Sample concentrations below the limit of quantification (BLQ) were treated as zero for pharmacokinetic calculations. Pharmacokinetic parameters were estimated from individual animals using noncompartmental analysis of the concentration-time data (Phoenix WinNonLin software, version 64; Pharsight, Mountain View, CA). The elimination rate constant (k) was calculated as the absolute value of the slope of the linear regression of logarithm (log) of the concentration versus time for the last three data points of the concentration-time profiles. Apparent elimination half-life (t1/2) values were calculated as ln(2)/k. Area under the concentration-time curve (AUC) values were estimated using linear trapezoidal method. AUCt values were calculated from the dosing time to the last measurable concentration. AUC∞ values were calculated as the sum of the corresponding AUCt and the ratio of the last detectable concentration divided by k (AUCt-∞). Plasma clearance (CL) was calculated from Dose/AUC∞. Mean resident time (MRT) was estimated by moment analysis. Volume of distribution at steady state (Vss) was calculated from MRT∞×CL. Maximum concentration (Cmax) and time to reach Cmax (tmax) were recorded as observed. Bioavailability was calculated from the ratio of dose normalized AUC∞,po of individual rats/mean dAUC∞,iv×100% where dAUC was the dose normalized AUC value. Compounds tested were prepared in accordance with the synthetic procedures described herein.

Data set [3] is described as follows: Dog cassette dosing pharmacokinetics. Type of data set: in vivo, beagle dogs. The conditions noted are these: male, beagle, plasma, IV; for Vd: read-out: Vss; for half-life: read-out: t½ (converted). The procedure:
Non-naïve male beagle dogs (8 months to 3 years of age, body weight 8-14 kg) sourced from Jiangsu Johnsen Bioresource CO. and/or Beijing Rixinkeji CO., LTD and/or Beijing Marshall Biotechnology CO., LTD were used in this study. All animals for IV administration had free access to food and water. The IV dose solution was prepared in 10% DMA/50% PG/40% HPβCD solution (40% w/v aqueous HPβCD) at a concentration of 0.2 mg/mL. Concentrations of IV dose was measured at the end of the study. PK parameters were calculated using the nominal dose values if the measured values were within 20% of the nominal values. Blood samples were collected by venipuncture of peripheral veins except the dosing vein at pre-dose, 5 15, 30 min, 1, 2, 4, 6, 8 and 24 h post-dose. Blood samples were centrifuged and resultant plasma was frozen for bioanalysis. Plasma samples were stored at −80° C. before analysis. Plasma samples were analyzed for compound concentrations using the LC/MS/MS method. Briefly, a 50 μL aliquot of each plasma sample was mixed with 100 μL of acetonitrile that contained an internal standard. The mixture was vortexed and centrifuged. Ten (10) μL of the resulting solution was injected onto a reverse-phase C18 column and the resultant peaks detected on a LC/MS/MS equipped with a turbo ionspray ionization source. Sample concentrations below the limit of quantification (BLQ) were treated as zero for PK calculations. PK parameters were estimated from individual animals using noncompartmental analysis of the concentration-time data (Phoenix WinNonLin software, version 64; Pharsight, Mountain View, CA). The elimination rate constant (k) was calculated as the absolute value of the slope of the linear regression of logarithm (log) of the concentration versus time for the last three data points of the concentration-time profiles. Apparent elimination half-life (t1/2) values were calculated as ln(2)/k. Area under the concentration-time curve (AUC) values were estimated using linear trapezoidal method. AUCt values were calculated from the dosing time to the last measurable concentration. AUC∞ values were calculated as the sum of the corresponding AUCt and the ratio of the last detectable concentration divided by k. Plasma clearance (CL) was calculated from Dose/AUC∞. Mean resident time extrapolated to infinity (MRT∞) was estimated by moment analysis. Vss was calculated from MRT∞×CL. Maximum concentration (Cmax) and time to reach Cmax (tmax) were recorded as observed. As this was a cross-over study, bioavailability was calculated dAUC∞,po/dAUC∞,iv×100% where dAUC was the dose normalized AUC value from the same animal given IV and PO dose. Data for compounds tested are provided in Table G. Compounds tested were prepared in accordance with the synthetic procedures described herein.

The nature of data set [4]: Monkey cassette dosing pharmacokinetics. It is filed as in vivo. Particulars: IV; for clearance / Vd: male, plasma; for Vd: read-out: Vss.

A word on the clearance: it is a measure of how efficiently the substance is removed, as volume per time. In the case of `C[C@H]1CC[C@H](N2CC(=O)N(Cc3ccc(Cl)c(F)c3)C3(CN(C(N)=O)C3)C2=O)CC1` [Compound 3, 5-(4-chloro-3-fluorobenzyl)-8-((1r,4r)-4-methylcyclohexyl)-6,9-dioxo-2,5,8-triazaspiro[3.5]nonane-2-carboxamide], the “CDMF IC15” value in data set [1] turned out to be 0.7 µM. Further, in data set [2], the clearance was found to be 78.5 mL/min/kg, the half-life is 2.6 h and the Vd was determined as 14.7 L/kg. Also, in data set [3], the clearance came to 7.16 mL/min/kg, the Vd was 6.9 L/kg and the half-life was 13.1 h.
`CC(C)N1CC(=O)N(Cc2ccc(F)c(Cl)c2)C2(CN(c3cccnn3)C2)C1=O` [Compound 9, 5-(3-chloro-4-fluorobenzyl)-8-isopropyl-2-(pyridazin-3-yl)-2,5,8-triazaspiro[3.5]nonane-6,9-dione]: the “CDMF IC15” value in data set [1] was 1.6 µM. In addition, in data set [2], the clearance was found to be 27.4 mL/min/kg, the half-life was 0.925 h and the Vd worked out at 1.64 L/kg. In data set [3], the clearance amounted to 13.9 mL/min/kg, the Vd was determined as 3.08 L/kg and the half-life was 3.65 h. Also, in data set [4], the “t l/2” value was determined as 1.59 h, the clearance came to 15.2 mL/min/kg and the Vd turned out to be 1.88 L/kg.
Take `CC[C@H]1CC[C@H](N2CC(=O)N(Cc3ccc(F)c(F)c3)C3(CN(C(N)=O)C3)C2=O)CC1` [Compound 11, 5-(3,4-difluorobenzyl)-8-((1r,4r)-4-ethylcyclohexyl)-6,9-dioxo-2,5,8-triazaspiro[3.5]nonane-2-carboxamide]: the “CDMF IC15” value in data set [1] stood at 0.7 µM. Moreover, in data set [3], the clearance is 6.3 mL/min/kg, the Vd amounted to 4.42 L/kg and the half-life was 9.66 h. Also, in data set [4], the “t l/2” value was found to be 3.03 h, the clearance came out at 33.1 mL/min/kg and the Vd was found to be 7.26 L/kg.
